From ChEMBL document CHEMBL1201862, “PubChem BioAssay data set” (2004) come the findings set out here.

SMILES strings stand for the structures.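 Method: 48-hour compound exposure of cells in 96-well plates, five concentrations, linear interpolation of endpoints. Here, GI50 denotes the concentration required for 50% inhibition of growth.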 The source made the active and inactive calls. No stated cut-off is given here; in the data, active = GI50 up to about 1.1 µM and inactive = higher.

Holding throughout (experiment): NCI-60 cell line screen, 48 h
In test [1] the test system is RPMI-8226.
The test system of test [2] is SK-MEL-5.
Test [3] has as its system U-251.
Test [4] relates to OVCAR-8.
The test system of test [5] is SNB-19.
For test [6], the system named is OVCAR-4.
The test system of test [7] is SNB-75.
For test [8], the system named is K562.
The subject of test [9] is LOX IMVI.
Test [10] has as its system UO-31.
In test [11] the test system is M14.
In test [12] the test system is SK-MEL-2.
Test [13] has as its system A498.
Test [14] concerns MDA-MB-435.
The subject of test [15] is SN12C.
Test [16] relates to CCRF-CEM.
Test [17] relates to UACC-62.
The test system of test [18] is SR.
Test [19] deals with MDA-MB-231.
In test [20] the test system is HCT-116.

For `CCOC(=O)CCC(NC(=O)c1ccc(Nc2nc3ccccc3nc2C(=O)OCC)cc1)C(=O)OCC` (stereo not given), the GI50 in test [1] was 6760 nM (inactive); in test [2], 27800 nM (inactive); in test [3] it was 3120 nM (inactive); in [4], 2750 nM (inactive); in test [5], 3940 nM (inactive); in test [6], 1610 nM (inactive). Also, the GI50 in [7] is 2360 nM (inactive); in test [8] it was > 100000 nM (inactive); in [9], 5580 nM (inactive); in test [10], 4280 nM (inactive); in [11], 8890 nM (inactive); in test [12], 6790 nM (inactive). Besides, the GI50 in [13] was 6790 nM (inactive); in test [14] it was 3910 nM (inactive); in [15] it was 15700 nM (inactive); in test [16] it was > 100000 nM (inactive); in [17] it was 3200 nM (inactive); in test [18], > 39300 nM (inactive). Also, the values for the GI50 in test [19] and in test [20] were 9620 nM (inactive) and 2950 nM (inactive), respectively.
Regarding `COc1ccc(CCNC2=CC(=O)c3ncccc3C2=O)cc1OC`, the GI50 in [1] is 5570 nM (inactive); in test [2] it was 184 nM (active); in test [3], 863 nM (active); in [4], 2540 nM (inactive); in [5], 1860 nM (inactive); in [6], 2470 nM (inactive). Besides, the GI50 in test [7] was 748 nM (active); in test [8], 2240 nM (inactive); in [9], 426 nM (active); in test [10] it was 931 nM (active); in [11], 1150 nM (inactive); in test [12], 1480 nM (inactive). Moreover, the GI50 in test [13] is 1820 nM (inactive); in test [14], 471 nM (active); in test [15], 973 nM (active); in [16] it was 5900 nM (inactive); in test [17], 435 nM (active); in test [18], 4240 nM (inactive). Moreover, the GI50 in [19] was 789 nM (active); in test [20] it was 2510 nM (inactive).
